The source of these data is ChEMBL document CHEMBL1137408, “Acylguanidines as small-molecule beta-secretase inhibitors” (J Med Chem, 2006).

Experiment [1] concerns CHO. The experiment in a line: Decrease in beta amyloid protein level in CHO cells expressing human APP by ELISA. It counts as functional. The settings on record: Cricetulus griseus, read-out: ED50 (the source's name). A general note: In an ELISA, binding on a coated surface is turned into a signal by an enzyme label.
In experiment [2] the target is Pepsin A (Homo sapiens, UniProt P0DJD9). The experiment is described as follows: Inhibition of pepsin by FRET based peptide cleavage assay.
Sequence of Pepsin A (P0DJD9 whole entry): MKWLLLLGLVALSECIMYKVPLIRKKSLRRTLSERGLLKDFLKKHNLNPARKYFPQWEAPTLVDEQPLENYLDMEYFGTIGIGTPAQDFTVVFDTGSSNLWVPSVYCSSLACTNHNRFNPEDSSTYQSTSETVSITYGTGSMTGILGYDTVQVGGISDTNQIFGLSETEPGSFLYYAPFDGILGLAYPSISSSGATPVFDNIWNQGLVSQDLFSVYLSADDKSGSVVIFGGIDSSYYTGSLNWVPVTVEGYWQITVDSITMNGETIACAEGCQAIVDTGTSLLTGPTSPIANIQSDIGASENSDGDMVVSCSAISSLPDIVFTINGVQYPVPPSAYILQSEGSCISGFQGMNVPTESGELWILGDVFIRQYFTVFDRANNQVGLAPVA
Experiment [3] concerns the target Beta-secretase 1 (Homo sapiens, UniProt P56817). The experiment is described as follows: Inhibition of human recombinant BACE1 by FRET based peptide cleavage assay.
Experiment [4] addresses T1, Beta-secretase 2 (Homo sapiens, UniProt Q9Y5Z0).
T1 sequence (Q9Y5Z0 whole entry): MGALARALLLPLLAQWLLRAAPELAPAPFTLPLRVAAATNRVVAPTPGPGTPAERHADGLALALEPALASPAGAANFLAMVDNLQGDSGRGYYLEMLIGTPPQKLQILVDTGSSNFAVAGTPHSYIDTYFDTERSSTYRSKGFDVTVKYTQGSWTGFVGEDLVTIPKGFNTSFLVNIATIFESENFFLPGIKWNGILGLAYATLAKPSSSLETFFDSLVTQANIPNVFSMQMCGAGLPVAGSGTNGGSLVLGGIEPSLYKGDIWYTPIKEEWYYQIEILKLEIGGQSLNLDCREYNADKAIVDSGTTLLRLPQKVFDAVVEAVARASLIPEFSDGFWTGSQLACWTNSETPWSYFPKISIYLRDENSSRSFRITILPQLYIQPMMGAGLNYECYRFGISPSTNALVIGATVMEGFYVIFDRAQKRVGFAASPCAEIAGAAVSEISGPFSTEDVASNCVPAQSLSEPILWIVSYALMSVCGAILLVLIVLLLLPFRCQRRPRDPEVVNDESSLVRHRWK
The experiment is described as follows: Inhibition of BACE2 by FRET based peptide cleavage assay.

Experiment [5] is filed under the species Homo sapiens. The experiment is described as follows: Selectivity for BACE1 over Cathepsin D.
Experiment [6] deals with Cathepsin D (Homo sapiens, UniProt P07339). The experiment in a line: Inhibition of cathepsin D by FRET based peptide cleavage assay.
Sequence of Cathepsin D (P07339 65-162 limits assumed): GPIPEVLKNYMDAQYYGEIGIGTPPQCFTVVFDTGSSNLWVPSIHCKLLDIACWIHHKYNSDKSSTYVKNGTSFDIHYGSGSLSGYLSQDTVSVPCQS
Sequence of Cathepsin D (P07339 169-412 limits assumed): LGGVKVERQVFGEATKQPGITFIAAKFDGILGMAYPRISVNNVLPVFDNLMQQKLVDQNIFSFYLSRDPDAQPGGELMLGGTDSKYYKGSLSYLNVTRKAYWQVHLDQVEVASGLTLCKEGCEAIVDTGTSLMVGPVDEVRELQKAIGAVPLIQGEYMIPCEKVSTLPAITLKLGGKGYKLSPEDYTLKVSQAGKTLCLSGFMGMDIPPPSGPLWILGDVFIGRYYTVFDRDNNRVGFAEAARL
Experiment [7] concerns H4. The experiment in a line: Decrease in beta CTF level in wild type H4 cells by RICA. The format is functional, cell-based. The note with it: Homo sapiens.
Experiment [8] concerns H4. The experiment is described as follows: Decrease in beta amyloid protein level in wild type H4 cells by RICA. The settings on record: Homo sapiens. It counts as functional, cell-based.

Sequence of Beta-secretase 1 (P56817 whole entry): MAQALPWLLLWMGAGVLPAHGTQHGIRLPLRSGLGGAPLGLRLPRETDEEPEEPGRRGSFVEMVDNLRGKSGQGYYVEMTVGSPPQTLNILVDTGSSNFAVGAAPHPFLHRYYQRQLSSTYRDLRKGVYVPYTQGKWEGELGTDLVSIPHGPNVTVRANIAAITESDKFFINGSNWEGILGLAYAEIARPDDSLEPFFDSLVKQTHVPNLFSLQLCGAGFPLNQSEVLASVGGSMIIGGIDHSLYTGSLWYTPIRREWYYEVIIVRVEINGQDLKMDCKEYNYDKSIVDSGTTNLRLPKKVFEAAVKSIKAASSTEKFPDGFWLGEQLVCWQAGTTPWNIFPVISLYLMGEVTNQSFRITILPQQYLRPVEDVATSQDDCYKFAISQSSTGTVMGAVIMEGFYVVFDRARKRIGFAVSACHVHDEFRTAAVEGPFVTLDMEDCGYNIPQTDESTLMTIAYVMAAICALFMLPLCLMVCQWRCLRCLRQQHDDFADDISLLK

On to `CC(=O)c1ccc(Oc2ccc(-c3ccc(-c4ccccc4Cl)n3CC(=O)NC(=N)N)cc2)cc1`, for which the EC50 in experiment [1] worked out at 8.6 µM. Besides, the IC50 (in general, the concentration that gives 50% inhibition) in experiment [2] is above 50 µM.
For the compound `NC(N)=NC(=O)Cn1c(-c2ccccc2)ccc1C12CC3CC(CC(C3)C1)C2`, the IC50 in experiment [3] was 0.6 µM; in experiment [4], 12.9 µM; in experiment [2] it was above 50 µM; in experiment [6], 30.2 µM. Further, the Selectivity ratio in experiment [5] is above 50. The EC50 in experiment [1] was 3.1 µM.
`CCCOc1ccc(-c2ccc(-c3ccccc3Cl)n2CC(=O)NC(=N)NCCCO)cc1`: the IC50 was 0.11 µM in experiment [3], 0.34 µM in experiment [4], above 50 µM in experiment [2] and 5.9 µM in experiment [6].
In the case of `CCCOc1ccc(-c2ccc(-c3ccccc3Cl)n2CC(=O)/N=C(/N)NCCCO)cc1`, the Selectivity ratio in experiment [5] is above 50.
Regarding `N/C(=N/C(=O)Cn1c(-c2ccccc2)ccc1C12CC3CC(CC(C3)C1)C2)NCCCO`, the IC50 in experiment [3] is 0.24 µM; in experiment [4] it was 3.5 µM; in experiment [2], above 50 µM; in experiment [6], 19.4 µM. Also, the Selectivity ratio in experiment [5] is above 50. For the same compound, the EC50 in experiment [1] worked out at 1.8 µM.
On to `N=C(N)NC(=O)Cn1c(-c2ccccc2)ccc1-c1ccccc1`, for which the Activity result in experiment [7] and in experiment [8] was “Dose-dependent effect” throughout. The compound further gave a concentration for half-maximal inhibition (IC50) in experiment [2] above 50 µM.
